The nature of data set [1]: Drug level in body fluid of Wistar rat infected with methicillin-resistant Staphylococcus aureus MRG3 at 7 mg/kg, sc BID measured on day 4 postdose. The data set is classed as ADME, organism-based. Also on record: dose 7 mg/kg, route subcutaneous. Particulars: in vivo.
The subject of data set [2] is Staphylococcus aureus. In words: Antibacterial activity against methicillin-resistant Staphylococcus aureus MRG3 infected in Wistar rat assessed as bacterial load in body fluid at 7 mg/kg, sc BID after 1 day. Particulars: route subcutaneous. The data set is classed as functional.
Data set [3] in a line: Drug level in body fluid of Wistar rat infected with methicillin-resistant Staphylococcus aureus MRG3 at 7 mg/kg, sc BID measured on day 7 postdose. Particulars: in vivo. The class given is ADME, organism-based. Also on record: dose 7 mg/kg, route subcutaneous.
The test system of data set [4] is Staphylococcus aureus. In words: Antibacterial activity against methicillin-resistant Staphylococcus aureus MRG3 by broth microdilution method. The class given is functional.
Data set [5] concerns Staphylococcus aureus. In words: Antibacterial activity against methicillin-resistant Staphylococcus aureus MRG3 infected in Wistar rat assessed as decrease in bacterial load in body fluid at 7 mg/kg, sc BID after 8 days. The data set is classed as functional. Particulars: route subcutaneous.
Data set [6] deals with Plasma. In words: Drug level in plasma of Wistar rat infected with methicillin-resistant Staphylococcus aureus MRG3 at 7 mg/kg, sc BID measured on day 4 postdose. Particulars: in vivo. The data set is classed as ADME, organism-based. Details: dose 7 mg/kg, route subcutaneous.
For data set [7], the system named is Staphylococcus aureus. Kind of data set: Antibacterial activity against methicillin-resistant Staphylococcus aureus MRG3 assessed as log decrease in bacterial count at 1 to 4 ug/ml by broth microdilution method. The data set is classed as functional. (In general: Dilution methods test growth across graded concentrations, often in twofold steps.)
A short description of data set [8]: Cmin in body fluid of Wistar rat infected with methicillin-resistant Staphylococcus aureus MRG3 at 50 mg/kg, sc measured on day 4 postdose. The class given is ADME, organism-based. Details: dose 50 mg/kg, route subcutaneous. The settings on record: in vivo.
Data set [9] in a line: Cmax in body fluid of Wistar rat infected with methicillin-resistant Staphylococcus aureus MRG3 at 50 mg/kg, sc measured on day 4 postdose. The data set is classed as ADME, organism-based. Details: dose 50 mg/kg, route subcutaneous.
Data set [10] deals with Staphylococcus aureus. Kind of data set: Bactericidal activity against methicillin-resistant Staphylococcus aureus MRG3 by broth microdilution method.
For data set [11], the system named is Staphylococcus aureus. In words: Antibacterial activity against methicillin-resistant Staphylococcus aureus MRG3 infected in Wistar rat assessed as decrease in bacterial load in body fluid at 50 mg/kg, sc after 8 days. The data set is classed as functional. Particulars: route subcutaneous.
Data set [12] concerns Staphylococcus aureus. Kind of data set: Antibacterial activity against methicillin-resistant Staphylococcus aureus MRG3 infected in Wistar rat assessed as bacterial load in body fluid at 50 mg/kg, sc after 1 day. Particulars: route subcutaneous. The data set is classed as functional.

Values after ≈ are worked out from the molar mass of the structure shown.

The text below walks through data of ChEMBL document CHEMBL1649478, “Comparison of tigecycline and vancomycin for treatment of experimental foreign-body infection due to methicillin-resistant Staphylococcus aureus” (Antimicrob Agents Chemother, 2009).

For orientation: MIC means the smallest concentration in the dilution series that meets the test's criterion for growth inhibition. As for `CN(C)c1cc(NC(=O)CNC(C)(C)C)c(O)c2c1C[C@H]1C[C@H]3[C@H](N(C)C)C(O)=C(C(N)=O)C(=O)[C@@]3(O)C(O)=C1C2=O` [TIGECYCLINE], the Drug uptake turned out to be 0.39 µg/mL in data set [1], 0.33 µg/mL in [3] and 1.87 µg/mL in data set [6]. The log10CFU/ml turned out to be 6.92 in [2], 0.62 in [5] and 2 in data set [7]. Also, in data set [4], the minimal inhibitory concentration (MIC) was 0.5 µg/mL (≈ 0.854 µM).

A word on the Cmax: it is the peak of the concentration-time curve. The term MBC denotes the lowest tested concentration that kills the bacteria rather than only halting them. Read a low MBC as more potent killing. In data set [8], `CN[C@H](CC(C)C)C(=O)N[C@H]1C(=O)N[C@@H](CC(N)=O)C(=O)N[C@H]2C(=O)N[C@H]3C(=O)N[C@H](C(=O)N[C@H](C(=O)O)c4cc(O)cc(O)c4-c4cc3ccc4O)[C@H](O)c3ccc(c(Cl)c3)Oc3cc2cc(c3O[C@@H]2O[C@H](CO)[C@@H](O)[C@H](O)[C@H]2O[C@H]2C[C@](C)(N)[C@H](O)[C@H](C)O2)Oc2ccc(cc2Cl)[C@H]1O` [VANCOMYCIN] had a Cmin of 2 µg/mL. The same molecule showed a peak concentration (Cmax) in data set [9] of 12000 ng/mL. The minimum bactericidal concentration (MBC) in data set [10] was 2 µg/mL (≈ 1.38 µM). Moreover, the figures for the log10CFU/ml in data set [11] and in [12] were 0.76 and 6.7, respectively.
